Where “and” joins values, the source holds several entries; their conditions need not be identical. Equal entries are not always repeated. Where two headings read alike, the source gives them in different places.
How the values were obtained:
[1] = test system: P. falciparum male gametogenesis; parameters: method as in Colmenarejo et al., 2018; settings: 2 μM; ref Colmenarejo et al., 2018; cited from earlier work
[2] = test system: P. falciparum late stage (stages IV-V) gametocytes; parameters: method as in Almela et al 2016; settings: TCAMS screen comparison; ref Almela et al 2016; read-out: Pf GCT ATP IC50; cited from earlier work
[3] = test system: P. berghei oocyst intensity in Anopheles stephensi mosquitoes; assay: P. berghei standard membrane feeding assay (Pb SMFA)
[4] = test system: P. berghei ookinete development; settings: read-out: IC50 Pb ODA; dose response, at least triplicate
[5] = test system: P. berghei ookinete development; assay: microbe, parasite or virus in culture; settings: Plasmodium berghei
[6] = test system: P. falciparum male gametocytes; assay: P. falciparum Dual Gamete Formation Assay (Pf DGFA), male readout
[7] = test system: 3D7-strain P. falciparum asexual parasites; assay: P. falciparum asexual growth inhibition assay (Pf GIA); assay type: cell-based, Plasmodium falciparum; settings: Plasmodium falciparum
Procedure, shortened: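 LDH readout: absorbance at 650 nm after 10 min at room temperature with lactate/APAD/NBT/diaphorase mix on thawed plates. Cultures (0.25% parasitemia, 2% hematocrit) were treated 72 h at 37°C in low-oxygen gas. Inhibition was normalised to 50 μM chloroquine and DMSO; n=3 biological replicates.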

[8] = test system: P. falciparum female gametocytes; parameters: method as in Miguel-Blanco et al 2017; settings: TCAMS screen comparison; ref Miguel-Blanco et al 2017; read-out: Pf FGAA IC50; cited from earlier work
[9] = test system: HepG2 cells; settings: cited from earlier work
[10] = test system: P. falciparum oocyst intensity; parameters: method as in Colmenarejo et al., 2018; settings: 2 μM; ref Colmenarejo et al., 2018; cited from earlier work
[11] = HepG2 cytotoxicity assay; settings: human, HepG2 cells
Procedure, shortened: (§1)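 HepG2 cells, 2,500 per well in MEM with 10% FBS and 1% NEAA, exposed to compounds for 48 h at 37°C, 5% CO2. Viability read by fluorescence; percent inhibition relative to 50 μM doxorubicin and DMSO controls.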

[12] = test system: HepG2 cells; assay: HepG2 cytotoxicity assay
Procedure, shortened: as §1

[13] = test system: P. falciparum female gametocytes; assay: P. falciparum Dual Gamete Formation Assay (Pf DGFA), female readout

CCC1CN2CCc3cc(OC)c(OC)cc3C2CC1CC1NCCc2cc(OC)c(OC)cc21 (stereo not shown) [TCMDC-125849]
inhibition of male gametogenesis in P. falciparum [1]: total inhibition
IC50 [2]: 120 nM
% inhibition Pb SMFA 1 μM (±SEM) ([3]; inhibition of oocyst intensity at 1 μM): 71.4%
inhibition at 1 µM ([3]; read-out: % inhibition Pb SMFA 1 μM (±SEM), inhibition of oocyst intensity at 1 μM): 71.4%
IC50 [4]: > 250 nM and 268 nM
inhibition at 1 µM ([5]; read-out: % inhibition, Replicate A): 118%
inhibition at 1 µM ([5]; read-out: % inhibition, Replicate B): 98.5%
IC50 ([5]; read-out: IC50 Pb ODA, dose response, at least triplicate): 0.268 µM
IC50 ([5]; read-out: Pb ODA IC50 (µM), this manuscript): 0.27 µM
Pf DGFA Male, Expt 1 ([6]; 1µM, Expt 1): 77.97
Pf DGFA Male, Expt 2 ([6]; 1µM, Expt 2): 55.40
Pf DGFA Male, Expt 3 ([6]; 1µM, Expt 3): 60.36
Pf DGFA Male, Expt 4 ([6]; 1µM, Expt 4): 68.13
% inhibition Pf DGFA (male) 1 μM (±SEM) ([6]; 1 μM, mean of four experiments): 65.46%
inhibition at 1 µM ([6]; Plasmodium falciparum, read-out: % inhibition Pf DGFA (male) 1 μM (±SEM), 1 μM, mean of four experiments): 65.5%
IC50 ([7]; 3D7, dose response confirmation, read-out: Pf asexual growth inhibition assays IC50): 42 nM
IC50 ([7]; 3D7, 72 h, LDH readout, read-out: IC50 Pf Asexual): 41.9 nM
IC50 [8]: 1820 nM
HepG2 cytoxicity ([9]; value reported with the Pf FGAA screen, ref Miguel-Blanco et al 2017): 2.24 µM
HepG2 cytoxicity ([9]; value reported with the Pf GCT ATP screen, ref Almela et al 2016): 17.68 µM
inhibition of oocyst intensity in P. falciparum [10]: 100%
IC50 at 48 h [11]: 24000 nM
IC50 ([12]; Homo sapiens, HepG2, 48 h, read-out: IC50 HepG2): 24000 nM
Unified cytotox ([12]; human): 14.64 µM
HepG2 cytoxicity ([12]; value reported with the Pb ODA screen, this manuscript): 23.99 µM
Pf DGFA Female, Expt 1 ([13]; 1µM, Expt 1): 99.68
Pf DGFA Female, Expt 2 ([13]; 1µM, Expt 2): 99.20
Pf DGFA Female, Expt 3 ([13]; 1µM, Expt 3): 99.79
Pf DGFA Female, Expt 4 ([13]; 1µM, Expt 4): 98.70
% inhibition Pf DGFA (female) 1 μM (±SEM) ([13]; 1 μM, mean of four experiments): 99.34%
inhibition at 1 µM ([13]; Plasmodium falciparum, read-out: % inhibition Pf DGFA (female) 1 μM (±SEM), 1 μM, mean of four experiments): 99.3%
